Source: the NIST ThermoML archive (doi:10.1021/je060271a)
Values joined by “and” are separate entries in the source; they are usually repeats but may differ in a detail not shown here. Equal values may be shown once.

Conditions: Liquid, Vibrating tube method

CCCCCCC(=O)OCC(COC(=O)CCCCCC)(COC(=O)CCCCCC)COC(=O)CCCCCC [pentaerythritol tetraheptanoate]
Conditions | mass density
283.15 K, 2785.2 kPa | 987.5 kg/m3
283.15 K, 4763 kPa | 988.5 kg/m3
283.15 K, 4768.7 kPa | 988.7 kg/m3
283.15 K, 5143.5 kPa | 988.8 kg/m3
283.15 K, 5150.3 kPa | 988.9 kg/m3
283.15 K, 5157.6 kPa | 988.7 kg/m3
283.15 K, 5164.1 kPa | 988.8 kg/m3
283.15 K, 5170.9 kPa | 988.9 kg/m3
283.15 K, 5178.5 kPa | 988.9 kg/m3
283.15 K, 5185.2 kPa | 988.8 kg/m3
283.15 K, 5558.2 kPa | 989.1 kg/m3
283.15 K, 5573.4 kPa | 989.1 kg/m3
283.15 K, 5748.5 kPa | 989.3 kg/m3
283.15 K, 5758 kPa | 989.2 kg/m3
283.15 K, 5766.1 kPa | 989.3 kg/m3
283.15 K, 9627.4 kPa | 991.5 kg/m3
283.15 K, 9754 kPa | 991.6 kg/m3
283.15 K, 9827.4 kPa | 991.6 kg/m3
283.15 K, 15376 kPa | 994.5 kg/m3
283.15 K, 15402 kPa | 994.5 kg/m3
283.15 K, 15424 kPa | 994.5 kg/m3
283.15 K, 15447 kPa | 994.5 kg/m3
283.15 K, 15473 kPa | 994.5 kg/m3
283.15 K, 15496 kPa | 994.5 kg/m3
283.15 K, 15518 kPa | 994.4 kg/m3
283.15 K, 15545 kPa | 994.6 kg/m3
283.15 K, 16561 kPa | 995.2 kg/m3
283.15 K, 16643 kPa | 995.1 kg/m3
283.15 K, 16700 kPa | 995.2 kg/m3
283.15 K, 17302 kPa | 995.5 kg/m3
283.15 K, 17330 kPa | 995.5 kg/m3
283.15 K, 17392 kPa | 995.5 kg/m3
283.15 K, 17420 kPa | 995.6 kg/m3
283.15 K, 19724 kPa | 996.7 kg/m3
283.15 K, 24690 kPa | 999.4 kg/m3
283.15 K, 24805 kPa | 999.3 kg/m3
283.15 K, 25965 kPa | 999.9 kg/m3
283.15 K, 26012 kPa | 1000.1 kg/m3
283.15 K, 26052 kPa | 1000.1 kg/m3
283.15 K, 26093 kPa | 1000.1 kg/m3
283.15 K, 26133 kPa | 1000.1 kg/m3
283.15 K, 26183 kPa | 1000.1 kg/m3
283.15 K, 26224 kPa | 1000.1 kg/m3
283.15 K, 26317 kPa | 1000.1 kg/m3
283.15 K, 26361 kPa | 1000.1 kg/m3
283.15 K, 26458 kPa | 1000.2 kg/m3
283.15 K, 26749 kPa | 1000.4 kg/m3
283.15 K, 26807 kPa | 1000.4 kg/m3
283.15 K, 26833 kPa | 1000.4 kg/m3
283.15 K, 26860 kPa | 1000.5 kg/m3
283.15 K, 26892 kPa | 1000.5 kg/m3
283.15 K, 26918 kPa | 1000.5 kg/m3
283.15 K, 26978 kPa | 1000.5 kg/m3
283.15 K, 27117 kPa | 1000.7 kg/m3
283.15 K, 27150 kPa | 1000.5 kg/m3
283.15 K, 27176 kPa | 1000.7 kg/m3
283.15 K, 27209 kPa | 1000.6 kg/m3
283.15 K, 27237 kPa | 1000.6 kg/m3
283.15 K, 27264 kPa | 1000.6 kg/m3
283.15 K, 27324 kPa | 1000.7 kg/m3
283.15 K, 27352 kPa | 1000.7 kg/m3
283.15 K, 27599 kPa | 1000.8 kg/m3
283.15 K, 27618 kPa | 1000.8 kg/m3
283.15 K, 27642 kPa | 1000.9 kg/m3
283.15 K, 27661 kPa | 1000.8 kg/m3
283.15 K, 27681 kPa | 1000.9 kg/m3
283.15 K, 27896 kPa | 1001.1 kg/m3
283.15 K, 27916 kPa | 1001.1 kg/m3
283.15 K, 27936 kPa | 1000.9 kg/m3
283.15 K, 27956 kPa | 1001 kg/m3
283.15 K, 28022 kPa | 1001 kg/m3
283.15 K, 30230 kPa | 1002.1 kg/m3
283.15 K, 33971 kPa | 1003.9 kg/m3
283.15 K, 34009 kPa | 1004.1 kg/m3
283.15 K, 34041 kPa | 1003.9 kg/m3
283.15 K, 34067 kPa | 1004 kg/m3
283.15 K, 34100 kPa | 1004.1 kg/m3
283.15 K, 34146 kPa | 1004.3 kg/m3
283.15 K, 34179 kPa | 1004 kg/m3
283.15 K, 34214 kPa | 1004.2 kg/m3
283.15 K, 34255 kPa | 1004.1 kg/m3
283.15 K, 34291 kPa | 1004.1 kg/m3
283.15 K, 34334 kPa | 1004.2 kg/m3 and 1004.1 kg/m3
283.15 K, 34346 kPa | 1004.1 kg/m3
283.15 K, 34372 kPa | 1004.2 kg/m3
283.15 K, 34412 kPa | 1004.3 kg/m3
283.15 K, 34450 kPa | 1004.2 kg/m3
283.15 K, 34481 kPa | 1004.2 kg/m3
283.15 K, 34492 kPa | 1004.2 kg/m3
283.15 K, 34503 kPa | 1004.4 kg/m3
283.15 K, 34516 kPa | 1004.2 kg/m3
283.15 K, 34528 kPa | 1004.3 kg/m3
283.15 K, 34542 kPa | 1004.4 kg/m3
283.15 K, 34553 kPa | 1004.4 kg/m3
283.15 K, 34565 kPa | 1004.4 kg/m3
283.15 K, 34574 kPa | 1004.3 kg/m3
283.15 K, 34579 kPa | 1004.3 kg/m3
283.15 K, 34594 kPa | 1004.5 kg/m3
283.15 K, 34601 kPa | 1004.3 kg/m3
283.15 K, 34603 kPa | 1004.2 kg/m3
283.15 K, 34606 kPa | 1004.3 kg/m3
303.14 K, 99.6 kPa | 970.8 kg/m3
303.14 K, 99.8 kPa | 970.7 kg/m3 and 970.8 kg/m3 and 970.9 kg/m3
303.14 K, 99.9 kPa | 970.8 kg/m3 and 970.9 kg/m3 and 970.7 kg/m3
303.14 K, 100.1 kPa | 970.7 kg/m3 and 970.6 kg/m3
303.14 K, 100.3 kPa | 970.7 kg/m3
303.14 K, 100.6 kPa | 970.8 kg/m3
303.14 K, 101.7 kPa | 970.7 kg/m3
303.14 K, 103.8 kPa | 970.7 kg/m3
303.14 K, 107.4 kPa | 970.8 kg/m3
303.14 K, 118.5 kPa | 970.8 kg/m3
303.14 K, 136.8 kPa | 970.7 kg/m3
